Data published in patent US8617818B2, “Compositions and methods for diagnosis and prognosis of cancer and progression, and for screening anti-cancer agents” (Tufts Medical Center, priority 2009, dated 2013).

Test system: MCF10A cells
Experiment: Transwell migration assay
Type: cell-based, human
Conditions: TGFβ 20 ng/mL
Experimental: Transwell migration assays were performed according to Irie et al., 2005 J. Cell Biol. 171: 1023. MCF10A cells were transfected with a negative control siRNA designed to have no sequence similarity to a human transcript sequence (#AM4611) or siRNAs for Akt1 (#S660) or Akt2 (#S1216), or siRNAs for both Akt 1 and Akt2 (50 nM). Twenty four hours after transfection, cells were cultured overnight in assay medium (MCF10A growth medium containing 2% serum±TGFβ (20 ng/mL)). Sixteen hours later, cells were trypsinized and 10^5 cells were added to the top chambers of
24-well transwell plates (8 μm pore size; BD Bioscience, Bedford, Mass.). The bottom chambers were filled with assay medium. […] The significance of variability between a given group and its corresponding control was determined with the unpaired t test.
The mRNAs encoding Akt1 and Akt2, which are present in similar abundance in untransfected MCF10A cells (FIG. 10), were respectively knocked down by transfection with small interfering RNA (siRNA) directed against Akt1 or Akt2. […] After transfection with these siRNAs, the cells were analyzed for the abundance of Zeb1, Zeb2, and E-cadherin before and 24 hours after treatment with TGFβ. […] Parallel cultures of similarly treated cells were therefore used to measured cell migration by means of a Transwell cell migration assay.

TGFβ
enhancement of cell migration (Akt1 siRNA-transfected MCF10A cells): 22 times
enhancement of cell migration (untransfected MCF10A cells): 7.7 times
